Source: US8148391B2 (Cephalon, Inc., priority 2006, dated 2012)
Like-named read-outs stand apart in the source and are kept apart here.

Tests used:
[1] = target: T1, baculovirus-expressed ALK (Homo sapiens, UniProt Q9UM73); test: ALK Kinase Assay (ELISA-type, time-resolved fluorescence); format: biochemical
T1 construct: host or cells: baculovirus expression system
In short: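 Substrate coating: phospholipase C-γ, 10 μg/mL in TBS. Kinase step: 30 ng/ml ALK, 15 min, 37° C. Detection and analysis: Eu-N1 PT66 antibody, with IC50 fitted as a sigmoidal variable-slope dose-response curve.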

[2] = target: T2, c-Met (cytoplasmic domain) (Homo sapiens, UniProt P08581); test: c-Met Kinase Assay (same methods as for ALK, with modifications); format: biochemical
T2 construct: 10 ng/mL c-Met (cytoplasmic domain, Invitrogen Corporation #PV3143); purchased Invitrogen Corporation PV3143
In short: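 This plate-based kinase format uses immobilized phospholipase C-γ as substrate, phosphorylated by c-Met cytoplasmic domain (10 ng/mL) at 37° C for 15 minutes.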

[3] = ALK kinase inhibition, 1 μM ATP, read-out: ALK Activity
[4] = c-Met kinase inhibition, 1 μM ATP, read-out: cMet Activity
[5] = 1 μM ATP (Km level), read-out: ALK Activity (ALK Kinase Inhibition, IC50)
[6] = 1 μM ATP (Km level), read-out: cMet Activity (c-Met Kinase Inhibition, IC50)
[7] = ALK kinase inhibition, 1 μM ATP (Km level), read-out: ALK Activity
[8] = c-Met kinase inhibition, 1 μM ATP (Km level), read-out: cMet Activity
[9] = 1 μM ATP (Km level), 30 ng/ml ALK, 37° C., 15 minutes, read-out: ALK Activity (ALK kinase inhibition, IC50 class)
[10] = 1 μM ATP (Km level), 10 ng/mL c-Met, read-out: cMet Activity (c-Met kinase inhibition, IC50 class)

T2 sequence (P08581 956-1390 limits assumed): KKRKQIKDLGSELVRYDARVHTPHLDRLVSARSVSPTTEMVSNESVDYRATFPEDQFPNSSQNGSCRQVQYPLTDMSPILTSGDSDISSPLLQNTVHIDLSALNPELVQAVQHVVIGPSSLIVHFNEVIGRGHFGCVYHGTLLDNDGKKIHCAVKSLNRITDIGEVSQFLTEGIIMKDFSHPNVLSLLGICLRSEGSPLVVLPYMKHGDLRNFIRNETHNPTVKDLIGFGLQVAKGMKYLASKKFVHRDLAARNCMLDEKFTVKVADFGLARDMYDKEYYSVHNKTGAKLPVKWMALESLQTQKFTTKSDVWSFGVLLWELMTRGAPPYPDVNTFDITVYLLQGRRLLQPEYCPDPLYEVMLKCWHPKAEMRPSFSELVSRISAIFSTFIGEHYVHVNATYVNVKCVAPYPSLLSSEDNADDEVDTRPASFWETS
T1 sequence (Q9UM73 19-1620): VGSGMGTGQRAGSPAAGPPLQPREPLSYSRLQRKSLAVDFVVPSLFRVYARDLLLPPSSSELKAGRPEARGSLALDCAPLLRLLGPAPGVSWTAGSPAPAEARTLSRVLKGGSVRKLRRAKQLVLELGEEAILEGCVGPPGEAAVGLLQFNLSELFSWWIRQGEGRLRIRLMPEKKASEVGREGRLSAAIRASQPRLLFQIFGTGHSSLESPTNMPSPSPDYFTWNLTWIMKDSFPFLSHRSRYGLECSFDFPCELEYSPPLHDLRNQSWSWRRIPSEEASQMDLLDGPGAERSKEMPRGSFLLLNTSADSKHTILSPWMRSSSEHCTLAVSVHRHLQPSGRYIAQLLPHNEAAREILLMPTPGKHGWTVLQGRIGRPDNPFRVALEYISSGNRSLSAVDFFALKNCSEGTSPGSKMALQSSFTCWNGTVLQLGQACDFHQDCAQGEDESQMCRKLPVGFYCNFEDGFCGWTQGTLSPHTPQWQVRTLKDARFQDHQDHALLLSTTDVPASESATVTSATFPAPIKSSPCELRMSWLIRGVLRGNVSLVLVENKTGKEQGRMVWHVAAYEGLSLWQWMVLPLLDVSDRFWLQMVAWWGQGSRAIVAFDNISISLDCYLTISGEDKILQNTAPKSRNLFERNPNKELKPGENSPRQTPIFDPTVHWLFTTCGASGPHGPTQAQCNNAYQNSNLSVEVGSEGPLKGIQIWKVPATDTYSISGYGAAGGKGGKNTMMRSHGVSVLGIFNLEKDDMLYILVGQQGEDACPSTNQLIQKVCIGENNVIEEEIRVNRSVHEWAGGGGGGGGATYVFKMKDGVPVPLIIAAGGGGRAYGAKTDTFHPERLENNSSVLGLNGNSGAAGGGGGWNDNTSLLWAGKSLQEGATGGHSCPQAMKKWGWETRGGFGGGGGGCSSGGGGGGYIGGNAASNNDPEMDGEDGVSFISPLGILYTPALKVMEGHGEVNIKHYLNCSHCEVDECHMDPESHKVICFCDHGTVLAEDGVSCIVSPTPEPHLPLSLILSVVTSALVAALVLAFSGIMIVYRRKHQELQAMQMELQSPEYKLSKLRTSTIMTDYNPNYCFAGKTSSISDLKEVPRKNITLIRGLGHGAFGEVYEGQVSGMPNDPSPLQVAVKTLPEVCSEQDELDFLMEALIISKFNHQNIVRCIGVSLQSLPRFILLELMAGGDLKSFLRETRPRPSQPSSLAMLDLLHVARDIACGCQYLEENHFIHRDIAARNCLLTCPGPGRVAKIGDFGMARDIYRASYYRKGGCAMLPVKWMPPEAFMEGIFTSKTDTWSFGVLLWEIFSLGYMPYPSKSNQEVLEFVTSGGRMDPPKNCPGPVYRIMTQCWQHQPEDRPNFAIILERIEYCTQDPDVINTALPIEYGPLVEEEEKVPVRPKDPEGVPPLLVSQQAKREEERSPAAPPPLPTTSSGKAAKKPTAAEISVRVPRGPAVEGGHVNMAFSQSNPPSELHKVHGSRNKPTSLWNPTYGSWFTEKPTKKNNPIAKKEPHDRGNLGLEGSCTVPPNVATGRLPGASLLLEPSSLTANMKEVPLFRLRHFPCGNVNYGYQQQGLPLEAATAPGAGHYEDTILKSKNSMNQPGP

| SMILES | IC50 [1, 3] [nM] | IC50 [2, 4] [nM] | IC50 [1, 7] [nM] | IC50 [2, 8] [nM] | further results |
| --- | --- | --- | --- | --- | --- |
| Cn1ccnc1-c1ccccc1Nc1nc(Nc2cccc3c2OCCCC3(C)C)ncc1Cl [Example 879, 5-Chloro-N*2*-(5,5-dimethyl-2,3,4,5-tetrahydro-benzo[b]oxepin-9-yl)-N*4*-[2-(1-methyl-1H-imidazol-2-yl)-phenyl]-pyrimidine-2,4-diamine] |  |  |  |  | IC50 [1, 5]: 100 to 1000 nM; IC50 [2, 6]: > 10000 nM |
| CN(C)C(=O)N1CCN(C)c2cc(Nc3ncc(Cl)c(N[C@@H]4CCCC[C@H]4NS(C)(=O)=O)n3)ccc2C1 [Example 481, 8-[5-Chloro-4-((1R,2R)-2-methanesulfonylamino-cyclohexylamino)-pyrimidin-2-ylamino]-1-methyl-1,2,3,5-tetrahydro-benzo[e][1,4]diazepine-4-carboxylic acid dimethylamide] |  |  | < 100 | 1000 to 10000 |  |
| COc1cc2c(cc1Nc1ncc(Cl)c(Nc3cc(C#N)ccc3OC)n1)CCN(CC(N)=O)CC2 [Example 1154, 2-{7-[5-Chloro-4-(5-cyano-2-methoxy-phenylamino)-pyrimidin-2-ylamino]-8-methoxy-1,2,4,5-tetrahydro-benzo[d]azepin-3-yl}-acetamide] |  |  |  |  | IC50 [1, 9]: < 100 nM; IC50 [2, 10]: > 10000 nM |
| CNS(=O)(=O)c1ccccc1Nc1nc(Nc2ccc3c(c2)CCCC(=O)N3CC(=O)O)ncc1Cl [Example 9, {7-[5-Chloro-4-(2-methylsulfamoyl-phenylamino)-pyrimidin-2-ylamino]-2-oxo-2,3,4,5-tetrahydro-benzo[b]azepin-1-yl}-acetic acid] |  |  | < 100 | < 100 |  |
| COCCN1CCc2ccc(Nc3ncc(Cl)c(Nc4ccccc4C(=O)NCCCCN(C)C)n3)cc2CC1 [Example 1400, {5-Chloro-2-[3-(2-methoxy-ethyl)-2,3,4,5-tetrahydro-1H-benzo[d]azepin-7-ylamino]-pyrimidin-4-ylamino}-N-(4-dimethylamino-butyl)-benzamide] |  |  |  |  | IC50 [1, 9]: 100 to 1000 nM; IC50 [2, 10]: 1000 to 10000 nM |
| COc1ccc(Nc2ncc(Cl)c(Nc3ccccc3S(=O)(=O)C(C)C)n2)c2c1CCCC(N1CCOCC1)C2 (stereo not shown) [Example 946, 5-Chloro-N(2)-(4-methoxy-8-morpholin-4-yl-6,7,8,9-tetrahydro-5H-benzocyclohepten-1-yl)-N(4)-[2-(propane-2-sulfonyl)-phenyl]-pyrimidine-2,4-diamine] |  |  |  |  | IC50 [1, 5]: 100 to 1000 nM; IC50 [2, 6]: > 10000 nM |
| COc1ccc2c(c1Nc1ncc(Cl)c(Nc3ccccc3-n3cccn3)n1)CCC(N1CCOCC1)CC2 (stereo not shown) [Example 1071, 5-Chloro-N*2*-(2-methoxy-7-morpholin-4-yl-6,7,8,9-tetrahydro-5H-benzocyclohepten-1-yl)-N*4*-(2-pyrazol-1-yl-phenyl)-pyrimidine-2,4-diamine] |  |  |  |  | IC50 [1, 9]: 100 to 1000 nM; IC50 [2, 10]: > 10000 nM |
| CNS(=O)(=O)c1ccccc1Nc1nc(Nc2ccc3c(c2)COC[C@@H]2CCCN32)ncc1Cl [Example 13, 2-{5-Chloro-2-[(S)-(2,3,3a,4-tetrahydro-1H,6H-5-oxa-10b-aza-benzo[e]azulen-8-yl)amino]-pyrimidin-4-ylamino}-N-methyl-benzenesulfonamide] |  |  | < 100 | 1000 to 10000 |  |
| COc1c(Nc2ncc(Cl)c(N[C@H]3[C@@H](C(N)=O)[C@@H]4C=C[C@H]3C4)n2)ccc2c1CCC(N1CCCC(O)C1)CC2 (stereo partly drawn) [Example 910, (1S,2S,3R,4R)-3-{5-Chloro-2-[7-(3-hydroxy-piperidin-1-yl)-1-methoxy-6,7,8,9-tetrahydro-5H-benzocyclohepten-2-ylamino]-pyrimidin-4-ylamino}-bicyclo[2.2.1]hept-5-ene-2-carboxylic acid amide] |  |  |  |  | IC50 [1, 5]: < 100 nM; IC50 [2, 6]: > 10000 nM |
| CCN1C(=O)CCCc2cc(Nc3ncc(Cl)c(N[C@@H]4CCCC[C@H]4NS(C)(=O)=O)n3)c(OC)cc21 [Example 130, N-{(1R,2R)-2-[5-Chloro-2-(1-ethyl-8-methoxy-2-oxo-2,3,4,5-tetrahydro-1H-benzo[b]azepin-7-ylamino)-pyrimidin-4-ylamino]-cyclohexyl}-methanesulfonamide] |  |  | < 100 | > 10000 |  |
| CCN1C(=O)CCC(C)(C)c2cc(Nc3ncc(Cl)c(Nc4ccc(N5CCOCC5)cc4OC)n3)ccc21 [Example 391, 7-[5-Chloro-4-(2-methoxy-4-morpholin-4-yl-phenylamino)-pyrimidin-2-ylamino]-1-ethyl-5,5-dimethyl-1,3,4,5-tetrahydro-benzo[b]azepin-2-one] |  |  | < 100 | > 10000 |  |
| CNC(=O)c1ccccc1Nc1nc(Nc2cc3c(cc2OC)C(=O)N(C)CCC3)ncc1Cl [Example 107, 2-[5-Chloro-2-(8-methoxy-2-methyl-1-oxo-2,3,4,5-tetrahydro-1H-benzo[c]azepin-7-ylamino)-pyrimidin-4-ylamino]-N-methyl-benzamide] |  |  | < 100 | 100 to 1000 |  |
| COc1cc2c(cc1Nc1ncc(Cl)c(Nc3ccc(N4CCN(C)CC4)cc3OC)n1)CCN(CCS(C)(=O)=O)CC2 [Example 771, 5-Chloro-N*2*-[3-(2-methanesulfonyl-ethyl)-8-methoxy-2,3,4,5-tetrahydro-1H-benzo[d]azepin-7-yl]-N*4*-[2-methoxy-4-(4-methyl-piperazin-1-yl)-phenyl]-pyrimidine-2,4-diamine] |  |  |  |  | IC50 [1, 5]: < 100 nM; IC50 [2, 6]: > 10000 nM |
| CCN1CCc2ccc(Nc3ncc(Cl)c(NCCC(=O)NC)n3)cc2CC1 [Example 211, 3-[5-Chloro-2-(3-ethyl-2,3,4,5-tetrahydro-1H-benzo[d]azepin-7-ylamino)-pyrimidin-4-ylamino]-N-methyl-propionamide] |  |  | 100 to 1000 | 1000 to 10000 |  |
| CN1C(=O)CCCc2cc(Nc3ncc(Cl)c(Nc4c(F)cccc4C(=O)NCC#N)n3)ccc21 [Example 1045, 2-[5-Chloro-2-(1-methyl-2-oxo-2,3,4,5-tetrahydro-1H-benzo[b]azepin-7-ylamino)-pyrimidin-4-ylamino]-N-cyanomethyl-3-fluoro-benzamide] |  |  |  |  | IC50 [1, 9]: < 100 nM; IC50 [2, 10]: < 100 nM |

Now from value to compound, other results behind:

| IC50 [1, 3] [nM] | IC50 [2, 4] [nM] | IC50 [1, 7] [nM] | IC50 [2, 8] [nM] | SMILES | further results |
| --- | --- | --- | --- | --- | --- |
| 100 to 1000 | < 100 |  |  | CNC(=O)c1sccc1Nc1nc(Nc2ccc3c(c2)CCOC(=O)N3C)ncc1Cl [Example 1747, 3-[5-Chloro-2-(5-methyl-6-oxo-5,6,8,9-tetrahydro-7-oxa-5-aza-benzocyclohepten-2-ylamino)-pyrimidin-4-ylamino]-thiophene-2-carboxylic acid methylamide] |  |
| < 100 | > 10000 |  |  | COc1cc2c(cc1Nc1ncc(Cl)c(Nc3ccc(N(C)C)cc3OC)n1)CCN(CC(=O)N1CCN(C)CC1)CC2 [Example 1540, 2-{7-[5-Chloro-4-(4-dimethylamino-2-methoxy-phenylamino)-pyrimidin-2-ylamino]-8-methoxy-1,2,4,5-tetrahydro-3-benzazepin-3-yl}-1-(4-methyl-piperazin-1-yl)-ethanone] |  |
| 100 to 1000 | 100 to 1000 |  |  | CNC(=O)c1scc(C)c1Nc1nc(Nc2ccc3c(c2)C(C)(C)CCC(=O)N3)ncc1Cl [Example 1572, 3-[5-Chloro-2-(5,5-dimethyl-2-oxo-2,3,4,5-tetrahydro-1H-benzo[b]azepin-7-ylamino)-pyrimidin-4-ylamino]-4-methyl-thiophene-2-carboxylic acid methyl amide] |  |
| 100 to 1000 | 1000 to 10000 |  |  | COc1cc(N2CCOCC2)ccc1Nc1nc(Nc2ccc3c(c2)N(C(C)=O)CCCC3(C)C)ncc1Cl [Example 1598, 1-{8-[5-Chloro-4-(2-methoxy-4-morpholin-4-yl-phenylamino)-pyrimidin-2-ylamino]-5,5-dimethyl-2,3,4,5-tetrahydro-benzo[b]azepin-1-yl}-ethanone] |  |
| 100 to 1000 | 100 to 1000 |  |  | C#CCNC(=O)c1cccc(F)c1Nc1nc(Nc2ccc3c(c2)NCCCC3(C)C)ncc1Cl [Example 1612, 2-[5-Chloro-2-(5,5-dimethyl-2,3,4,5-tetrahydro-1H-benzo[b]azepin-8-ylamino)-pyrimidin-4-ylamino]-3-fluoro-N-prop-2-ynyl-benzamide] |  |
| < 100 | < 100 |  |  | Cc1n[nH]c(-c2ccccc2Nc2nc(Nc3ccc4c(c3)CCOC(=O)N4C)ncc2Cl)n1 [Example 1788, 2-{5-Chloro-4-[2-(5-methyl-2H-[1,2,4]triazol-3-yl)-phenylamino]-pyrimidin-2-ylamino}-5-methyl-8,9-dihydro-5H-7-oxa-5-aza-benzocyclohepten-6-one] |  |
| < 100 | > 10000 |  |  | COc1cc2c(cc1Nc1ncc(Cl)c(Nc3ccccc3S(=O)(=O)N3CC[C@@H](O)C3)n1)CCN(C[C@@H](C)O)CC2 [Example 1557, (R)-1-(2-{5-Chloro-2-[3-((R)-2-hydroxy-propyl)-8-methoxy-2,3,4,5-tetrahydro-1H-3-benzazepin-7-ylamino]-pyrimidin-4-ylamino}-benzenesulfonyl)-pyrrolidin-3-ol] |  |
| 1000 to 10000 | 1000 to 10000 |  |  | COCCN1CCc2ccc(Nc3ncc(Cl)c(Nc4c(F)cccc4OCC(=O)OC)n3)cc2CC1 [Example 1727, (2-{5-Chloro-2-[3-(2-methoxy-ethyl)-2,3,4,5-tetrahydro-1H-benzo[d]azepin-7-ylamino]-pyrimidin-4-ylamino}-3-fluoro-phenoxy)-acetic acid methyl ester] |  |
